Measurements from PubChem BioAssay (NCI).
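Test compounds were applied to cells in 96-well plates for 48 hours at 5 doses. GI50 marks 50% less growth. TGI denotes the concentration required for complete inhibition of growth.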

Legend:
Assay in all cases: DTP human tumour cell line panel, 48 h
EKVX NSCLC = tested on: EKVX NSCLC
MCF7 breast = tested on: MCF7 breast
786-0 renal = tested on: 786-0 renal
SF-539 CNS = tested on: SF-539 CNS
SK-OV-3 ovarian = tested on: SK-OV-3 ovarian
UACC-62 melanoma = tested on: UACC-62 melanoma
CCRF-CEM leukemia = tested on: CCRF-CEM leukemia
OVCAR-4 ovarian = tested on: OVCAR-4 ovarian
M14 melanoma = tested on: M14 melanoma
SK-MEL-5 melanoma = tested on: SK-MEL-5 melanoma
HCT-15 colon = tested on: HCT-15 colon
HCC-2998 colon = tested on: HCC-2998 colon
U251 CNS = tested on: U251 CNS
DU-145 prostate = tested on: DU-145 prostate
NCI-H460 lung = tested on: NCI-H460 lung
HOP-92 NSCLC = tested on: HOP-92 NSCLC
CAKI-1 renal = tested on: CAKI-1 renal
ACHN renal = tested on: ACHN renal
UACC-257 melanoma = tested on: UACC-257 melanoma
NCI/ADR-RES ovarian = tested on: NCI/ADR-RES ovarian
MDA-MB-231 breast = tested on: MDA-MB-231 breast
SNB-75 CNS = tested on: SNB-75 CNS
OVCAR-5 ovarian = tested on: OVCAR-5 ovarian
BT-549 breast = tested on: BT-549 breast
IGROV1 ovarian = tested on: IGROV1 ovarian
SNB-19 CNS = tested on: SNB-19 CNS
RXF 393 renal = tested on: RXF 393 renal
LOX IMVI melanoma = tested on: LOX IMVI melanoma
HT29 colon = tested on: HT29 colon
MDA-MB-435 = tested on: MDA-MB-435
TK-10 renal = tested on: TK-10 renal
OVCAR-8 ovarian = tested on: OVCAR-8 ovarian
UO-31 renal = tested on: UO-31 renal
COLO 205 colon = tested on: COLO 205 colon
SF-268 CNS = tested on: SF-268 CNS
HCT-116 colon = tested on: HCT-116 colon
OVCAR-3 ovarian = tested on: OVCAR-3 ovarian
SK-MEL-28 melanoma = tested on: SK-MEL-28 melanoma
SF-295 CNS = tested on: SF-295 CNS
NCI-H23 lung = tested on: NCI-H23 lung
SK-MEL-2 melanoma = tested on: SK-MEL-2 melanoma
NCI-H226 lung = tested on: NCI-H226 lung
KM12 colon = tested on: KM12 colon
PC-3 prostate = tested on: PC-3 prostate
SW-620 colon = tested on: SW-620 colon
A549 NSCLC = tested on: A549 NSCLC
SN12C renal = tested on: SN12C renal
SR leukemia = tested on: SR leukemia
T-47D breast = tested on: T-47D breast
HOP-62 NSCLC = tested on: HOP-62 NSCLC
K-562 leukemia = tested on: K-562 leukemia
HL-60(TB) leukemia = tested on: HL-60(TB) leukemia
NCI-H522 lung = tested on: NCI-H522 lung
RPMI-8226 leukemia = tested on: RPMI-8226 leukemia
MOLT-4 leukemia = tested on: MOLT-4 leukemia
MALME-3M melanoma = tested on: MALME-3M melanoma
HS 578T breast = tested on: HS 578T breast

SMILES: O=C(OCC1OC(n2cc(C(F)(F)F)c(=O)[nH]c2=O)CC1OC(=O)c1ccc([N+](=O)[O-])cc1)c1ccc([N+](=O)[O-])cc1 (centres undefined)
- GI50 (EKVX NSCLC): > 100 µM
- TGI (EKVX NSCLC): > 100 µM
- GI50 (MCF7 breast): 1.26 µM
- TGI (MCF7 breast): > 100 µM
- GI50 (786-0 renal): 3.11 µM
- TGI (786-0 renal): 18.6 µM
- GI50 (SF-539 CNS): 2.03 µM
- TGI (SF-539 CNS): > 100 µM
- GI50 (SK-OV-3 ovarian): 8.51 µM
- TGI (SK-OV-3 ovarian): > 100 µM
- GI50 (UACC-62 melanoma): 1.41 µM
- TGI (UACC-62 melanoma): > 100 µM
- GI50 (CCRF-CEM leukemia): 3.86 µM
- TGI (CCRF-CEM leukemia): > 100 µM
- GI50 (OVCAR-4 ovarian): 54.7 µM
- TGI (OVCAR-4 ovarian): > 100 µM
- GI50 (M14 melanoma): 1.96 µM
- TGI (M14 melanoma): 7.82 µM
- GI50 (SK-MEL-5 melanoma): 4.55 µM
- TGI (SK-MEL-5 melanoma): > 100 µM
- GI50 (HCT-15 colon): 20.8 µM
- TGI (HCT-15 colon): > 100 µM
- GI50 (HCC-2998 colon): 5.38 µM
- TGI (HCC-2998 colon): > 100 µM
- GI50 (U251 CNS): 9.08 µM
- TGI (U251 CNS): > 100 µM
- GI50 (DU-145 prostate): 0.885 µM
- TGI (DU-145 prostate): > 100 µM
- GI50 (NCI-H460 lung): 3.43 µM
- TGI (NCI-H460 lung): > 100 µM
- GI50 (HOP-92 NSCLC): 8.55 µM
- TGI (HOP-92 NSCLC): > 100 µM
- GI50 (CAKI-1 renal): 3.29 µM
- TGI (CAKI-1 renal): > 100 µM
- GI50 (ACHN renal): 1.17 µM
- TGI (ACHN renal): > 100 µM
- GI50 (UACC-257 melanoma): 2.7 µM
- TGI (UACC-257 melanoma): > 100 µM
- GI50 (NCI/ADR-RES ovarian): 16.7 µM
- TGI (NCI/ADR-RES ovarian): > 100 µM
- GI50 (MDA-MB-231 breast): > 100 µM
- TGI (MDA-MB-231 breast): > 100 µM
- GI50 (SNB-75 CNS): 8.92 µM
- TGI (SNB-75 CNS): > 100 µM
- GI50 (OVCAR-5 ovarian): 41.8 µM
- TGI (OVCAR-5 ovarian): > 100 µM
- GI50 (BT-549 breast): 7.42 µM
- TGI (BT-549 breast): > 100 µM
- GI50 (IGROV1 ovarian): 25.4 µM
- TGI (IGROV1 ovarian): > 100 µM
- GI50 (SNB-19 CNS): > 100 µM
- TGI (SNB-19 CNS): > 100 µM
- GI50 (RXF 393 renal): 4.54 µM
- TGI (RXF 393 renal): > 100 µM
- GI50 (LOX IMVI melanoma): 4.81 µM
- TGI (LOX IMVI melanoma): > 100 µM
- GI50 (HT29 colon): > 100 µM
- TGI (HT29 colon): > 100 µM
- GI50 (MDA-MB-435): 2.36 µM
- TGI (MDA-MB-435): > 100 µM
- GI50 (TK-10 renal): > 100 µM
- TGI (TK-10 renal): > 100 µM
- GI50 (OVCAR-8 ovarian): 6.91 µM
- TGI (OVCAR-8 ovarian): > 100 µM
- GI50 (UO-31 renal): 3.77 µM
- TGI (UO-31 renal): > 100 µM
- GI50 (COLO 205 colon): > 100 µM
- TGI (COLO 205 colon): > 100 µM
- GI50 (SF-268 CNS): 3.87 µM
- TGI (SF-268 CNS): > 100 µM
- GI50 (HCT-116 colon): 8.5 µM
- TGI (HCT-116 colon): > 100 µM
- GI50 (OVCAR-3 ovarian): 23.8 µM
- TGI (OVCAR-3 ovarian): > 100 µM
- GI50 (SK-MEL-28 melanoma): > 100 µM
- TGI (SK-MEL-28 melanoma): > 100 µM
- GI50 (SF-295 CNS): 3.72 µM
- TGI (SF-295 CNS): > 100 µM
- GI50 (NCI-H23 lung): > 100 µM
- TGI (NCI-H23 lung): > 100 µM
- GI50 (SK-MEL-2 melanoma): > 100 µM
- TGI (SK-MEL-2 melanoma): > 100 µM
- GI50 (NCI-H226 lung): 9.42 µM
- TGI (NCI-H226 lung): > 100 µM
- GI50 (KM12 colon): > 100 µM
- TGI (KM12 colon): > 100 µM
- GI50 (PC-3 prostate): 8.74 µM
- TGI (PC-3 prostate): > 100 µM
- GI50 (SW-620 colon): 6.2 µM
- TGI (SW-620 colon): > 100 µM
- GI50 (A549 NSCLC): 4.95 µM
- TGI (A549 NSCLC): > 100 µM
- GI50 (SN12C renal): 4.28 µM
- TGI (SN12C renal): > 100 µM
- GI50 (SR leukemia): 11.3 µM
- TGI (SR leukemia): > 100 µM
- GI50 (T-47D breast): 7.88 µM
- TGI (T-47D breast): > 100 µM
- GI50 (HOP-62 NSCLC): 8.97 µM
- TGI (HOP-62 NSCLC): > 100 µM
- GI50 (K-562 leukemia): 94 µM
- TGI (K-562 leukemia): > 100 µM
- GI50 (HL-60(TB) leukemia): 7.37 µM
- TGI (HL-60(TB) leukemia): > 100 µM
- GI50 (NCI-H522 lung): 5.65 µM
- TGI (NCI-H522 lung): > 100 µM
- GI50 (RPMI-8226 leukemia): 2.12 µM
- TGI (RPMI-8226 leukemia): > 100 µM
- GI50 (MOLT-4 leukemia): 14.8 µM
- TGI (MOLT-4 leukemia): > 100 µM
- GI50 (MALME-3M melanoma): 92.3 µM
- TGI (MALME-3M melanoma): > 100 µM
- GI50 (HS 578T breast): > 100 µM
- TGI (HS 578T breast): > 100 µM
